Laboratory results: PubChem BioAssay (NCI)
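Dose response: 5 concentrations. Exposure: 48 h. Format: 96-well plates. Endpoint: linear interpolation; highest concentration if not reached. TGI denotes the concentration required for complete inhibition of growth.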

Legend:
Assay in all cases: NCI tumour cell line growth inhibition, 48 h
MALME-3M melanoma = test system: MALME-3M melanoma
A549 NSCLC = test system: A549 NSCLC
TK-10 renal = test system: TK-10 renal
UACC-257 melanoma = test system: UACC-257 melanoma
HCC-2998 colon = test system: HCC-2998 colon
OVCAR-4 ovarian = test system: OVCAR-4 ovarian
HL-60(TB) leukemia = test system: HL-60(TB) leukemia
CCRF-CEM leukemia = test system: CCRF-CEM leukemia
786-0 renal = test system: 786-0 renal
SNB-78 CNS = test system: SNB-78 CNS
NCI-H460 lung = test system: NCI-H460 lung
LOX IMVI melanoma = test system: LOX IMVI melanoma
SNB-75 CNS = test system: SNB-75 CNS
COLO 205 colon = test system: COLO 205 colon
SF-295 CNS = test system: SF-295 CNS
SW-620 colon = test system: SW-620 colon
K-562 leukemia = test system: K-562 leukemia
CAKI-1 renal = test system: CAKI-1 renal
LXFL 529 NSCLC = test system: LXFL 529 NSCLC
A498 renal = test system: A498 renal
SK-MEL-2 melanoma = test system: SK-MEL-2 melanoma
HOP-62 NSCLC = test system: HOP-62 NSCLC
SK-MEL-5 melanoma = test system: SK-MEL-5 melanoma
HT29 colon = test system: HT29 colon
SN12C renal = test system: SN12C renal
NCI-H522 lung = test system: NCI-H522 lung
SF-539 CNS = test system: SF-539 CNS
SF-268 CNS = test system: SF-268 CNS
SK-OV-3 ovarian = test system: SK-OV-3 ovarian
IGROV1 ovarian = test system: IGROV1 ovarian
RXF 393 renal = test system: RXF 393 renal
MOLT-4 leukemia = test system: MOLT-4 leukemia
U251 CNS = test system: U251 CNS
HCT-15 colon = test system: HCT-15 colon
SNB-19 CNS = test system: SNB-19 CNS
OVCAR-3 ovarian = test system: OVCAR-3 ovarian
KM12 colon = test system: KM12 colon
HCT-116 colon = test system: HCT-116 colon
RPMI-8226 leukemia = test system: RPMI-8226 leukemia
KM20L2 colon = test system: KM20L2 colon
NCI-H226 lung = test system: NCI-H226 lung
ACHN renal = test system: ACHN renal
DLD-1 colon = test system: DLD-1 colon
M19-MEL melanoma = test system: M19-MEL melanoma
HOP-18 NSCLC = test system: HOP-18 NSCLC
M14 melanoma = test system: M14 melanoma
NCI-H23 lung = test system: NCI-H23 lung
OVCAR-8 ovarian = test system: OVCAR-8 ovarian
OVCAR-5 ovarian = test system: OVCAR-5 ovarian
DMS 273 small cell lung = test system: DMS 273 small cell lung
UO-31 renal = test system: UO-31 renal
SK-MEL-28 melanoma = test system: SK-MEL-28 melanoma
UACC-62 melanoma = test system: UACC-62 melanoma
DMS 114 small cell lung = test system: DMS 114 small cell lung
SR leukemia = test system: SR leukemia
HOP-92 NSCLC = test system: HOP-92 NSCLC
EKVX NSCLC = test system: EKVX NSCLC

Measured: TGI

O=C(CSc1nnc(Cc2ccccc2)o1)Nc1ccc(Cl)cc1Cl
not listed: SR leukemia | HOP-92 NSCLC | EKVX NSCLC
> 100 µM: all other assays above

COc1cccc2c1C(=O)C1(O)CCCCC21 (configuration not stated)
not listed: SR leukemia | HOP-92 NSCLC | EKVX NSCLC
> 100 µM: all other assays above

CCc1cccc(CC)c1NC(=O)C(=O)Cc1nc2ccccc2o1
not listed: SNB-75 CNS | SK-MEL-5 melanoma | DMS 273 small cell lung
> 100 µM: all other assays above
